Assay results reported in US20240325373A1, “METHODS AND COMPOSITIONS FOR INHIBITION OF DIHYDROOROTATE DEHYDROGENASE IN COMBINATION WITH AN ANTI-CD47-SIRPA THERAPEUTIC AGENT” (OHIO STATE INNOVATION FOUNDATION, priority 2021, published 2024).

Assays:
[1] = test system: a variety of unrelated viruses; details: in vitro; Harvey et al. (2009); read-out: EC50, inhibition of virus replication; cited from earlier work
MV4-11 cells = experiment: CALR, CD47 and SIRPα surface expression (MFI, flow cytometry) in MV4-11 cells after DHODHi treatment with or without uridine; format: cell-based; details: 72 h; BRQ 500 nM, Cpd4 10, 25, 50, 100 nM, BAY 1 nM; reversible with 0.1 mM uridine
Procedure: MV4-11 cells were treated with vehicle (DMSO), brequinar (BRQ, 500 nM), Cpd4 (10, 25, 50, 100 nM), or BAY2402234 (BAY, 1 nM) for 72 hours, in the presence or absence of exogenous uridine (0.1 mM). After the 72-hour treatment, cells were collected, washed and stained for flow cytometric analysis and the mean fluorescent intensity (MFI) measured to determine calreticulin (CALR) and CD47 surface expression.
(§1) FIGS. 8A-8B show representative data for the Mean Fluorescent Intensity (MFI) of SIRPα (CD172a) surface expression following the indicated treatments. […] Briefly, cells were treated for 72 hours to determine SIRPα level using flow cytometry and determine if SIRPα level was different in the P53 mutant clones. As shown, SIRPα level appears modestly higher in the heterozygous P53 MV4-11 clone. […] Briefly, MV4-11 cells were treated for 72 hours with DHODHi with or without uridine to measure SIRPα surface expression post DHODHi therapy.

MOLM-13 cells = experiment: Disseminated MOLM-13 xenograft, treatment from 4 days after implantation (Example 5); format: in vivo; set-up: ILS / Median survival: unit not given here; details: for Statistical Significance: vs vehicle; for Median survival Ratio: Column A (vehicle) to Column B; for Median survival: treated group; for Hazard Ratio (Logrank) Ratio / Hazard Ratio (Mantel-Haenszel) Ratio: vehicle (Group 1) vs treated
Procedure: Briefly, ten week old male NCG mice (NOD-Prkdcem26Cd52//2rgem26Cd22/NjuCrl, Charles River) were injected intravenously (i.v.) in the tail vein with 1×10^5 MOLM-13 cells resuspended in cold phosphate buffer saline (PBS), using 0.2 mL of a suspension at 5×10^5 MOLM-13 cells/mL. Four days after tumor cell implantation, which was designated as Day 1 of the study, mice were randomized into eight treatment groups (n=10) based on body weights. Note that for the sample administration above, vehicle was a 50/50 mix of 40% HPBCD in sterile water and 10% Ethanol/90% PEG400. […] The remaining mice were left on study to monitor for an additional 25 days to determine if any residual disease would relapse following drug cessation. Thus, at day 106, all remaining mice were euthanized and spleens and bone marrow were harvested and analyzed by flow cytometry to investigate whether residual disease was present.

[2] = test system: MV4-11 P53 wild type, heterozygous and homozygous clones; experiment: Sensitivity and CD47/SIRPα surface expression of MV4-11 P53 clones treated with DHODHi; format: cell-based; details: 72 h; reversed with 0.1 mM exogenous uridine
Procedure: MV4-11 cell line was reported to harbor a R248W TP53 hotspot mutation (Yan B, Chen Q, Xu J, Li W, Xu B, Qiu Y. Leukemia 2020 doi 10.1038/s41375-020-0710-7.). Accordingly, the MV4-11 cell line was single cell sorted to separate the P53 mutant sub-clone and generated three clones; P53 wild type, P53 heterozygous, and P53 homozygous to interrogate the potential role of P53 mutation on DHODHi activity and if DHODHi affected CD47 expression. Therefore, MV4-11 clones were treated with DHODHi, brequinar (BRQ) or Cpd4 for 72 hours. Cells were then collected, washed with PBS then stained for flow cytometry analysis of CD47 surface expression and the overall sensitivity of the MV4-11 clones to DHODHi.
as §1

MOLM-13 tumor cells = experiment: Disseminated MOLM-13 aggressive xenograft, treatment from 10 days after implantation (Example 6); format: in vivo; details: for BW Nadir (Lowest Mean Body Weight for Group): % of initial mean BW
Procedure: Briefly, NCG mice were i.v. injected in the tail vein with 1×10^5 MOLM-13 tumor cells suspended in PBS in a cell injection volume of 0.2 mL/mouse. Animals were randomized into treatment groups based on Day 1 body weight. The study start date (Day 1) was at 10 days post implant (tumor injection). In the study, males were separated into single housing if excessive fighting or aggressive behavior was observed. The animals were 8 to 12 weeks old at study start. […] Any group with a mean body weight loss of >20% or >10% mortality had dosing terminated, but not euthanized, and allowed to recover. Within a group, any individual animal with a >20% weight loss endpoint were euthanized. […] At the endpoint, the animals were euthanized per standard procedure. Clinical signs associated with progression of tumor include impairment of hind limb function, ocular proptosis, and weight loss. Full hindlimb paralysis, ocular proptosis, or moribundity were considered sufficient for euthanasia.

U266B1 = experiment: CD47 surface expression and viability by flow cytometry in multiple myeloma cell line U266B1; format: cell-based; details: three concentrations of Cpd4
Procedure: (§2) Briefly, tumor cells were typically grown at 37° C. in a humidified atmosphere with 5% C02 in RPMI 1640 medium, supplemented with 10% (v/v) fetal calf serum and 50 μg/ml gentamicin for up to 20 passages, and were typically passaged once or twice weekly. Cells were harvested by centrifugation, and the percentage of viable cells were determined using a CASY Model TT cell counter (OMNI Life Science). Cells were harvested from exponential phase cultures, counted and plated in […] plates at a cell density depending on the cell line's growth rate in RPMI 1640 medium supplemented with 10% (v/v) fetal calf serum and 50 µg/ml gentamicin (140 μl/well). At the time of plating, a t=0 h timepoint was taken as a baseline measurement (dotted horizontal lines in the figures). Cultures were incubated at 37° C. and 5% C02 in a humidified atmosphere. At 24 h after cell seeding, DMSO (vehicle control) or the test compound at three different concentrations was added, and left on the cells for another 48 h, 96 h, or 144 h. […] After standard washing techniques, the cells were analyzed on an Attune NxT Acoustic Focusing Cytometer (Thermo Fisher Scientific, Waltham, MA). Antibody Binding Capacity (ABC) was determined using Quantum™ Simply Cellular® quantification beads (Bio-Rad Laboratories, Hercules, CA).

H929 = experiment: CD47 surface expression by flow cytometry in multiple myeloma cell line H929; format: cell-based; details: from 48 h after the start of treatment
Procedure: as §2

MM1.S = experiment: CD47 surface expression by flow cytometry in multiple myeloma cell line MM1.S; format: cell-based; details: from 48 h after the start of treatment
Procedure: as §2

[3] = Separate cell-based assays (IC50 of Cpd4)

O=C(N[C@@H]1CCCc2c1[nH]c1ccc(Cl)cc21)c1ccccn1 [GSK983]
EC50 [1]: 5 to 20 nM

CCn1c(CO)nn(-c2cc(O[C@@H](C)C(F)(F)F)c(C(=O)Nc3c(F)cccc3Cl)cc2F)c1=O [BAY2402234, N-(2-chloro-6-fluorophenyl)-4-(4-ethyl-3-(hydroxymethyl)-5-oxo-4,5-dihydro-1H-1,2,4-triazol-1-yl)-5-fluoro-2-((1,1,1-trifluoropropan-2-yl)oxy)benzamide, reference compound]
CALR surface expression (MFI) (MV4-11 cells): upregulated
CD47 surface expression (MFI) (MV4-11 cells): upregulated
Deaths NTRa (MOLM-13 cells; 4 mg/kg po qd): 1
ILS (MOLM-13 cells; 4 mg/kg po qd): 144
Mean BW Nadir (MOLM-13 cells; 4 mg/kg po qd): −5.7%
Median TTE (MOLM-13 cells; 4 mg/kg po qd): 44.0
n Remaining Day 106 (MOLM-13 cells; 4 mg/kg po qd): 0
Statistical Significance (MOLM-13 cells; 4 mg/kg po qd): *** (*** = P ≤ 0.001)
Median survival Ratio (MOLM-13 cells; 4 mg/kg po qd): 0.4091
Median survival (MOLM-13 cells; 4 mg/kg po qd): 44
Hazard Ratio (Logrank) Ratio (MOLM-13 cells; 4 mg/kg po qd): 4.397
Hazard Ratio (Mantel-Haenszel) Ratio (MOLM-13 cells; 4 mg/kg po qd): 21.48

CCCCOc1cccc(-c2ccc(-c3cc(C(=O)O)c4cc(F)ccc4n3)cc2)c1 [Cpd4, 2-(3′-butoxy-[1,1′-biphenyl]-4-yl)-6-fluoroquinoline-4-carboxylic acid]
CALR surface expression (MFI) (MV4-11 cells): upregulated
CD47 surface expression (MFI) (MV4-11 cells): upregulated
CD47 surface expression [2]: upregulate surface CD47 expression regardless of the P53 mutation status
SIRPα surface expression [2]: upregulate surface SIRPα expression regardless of the P53 mutation status
ILS (MOLM-13 cells; 4 mg/kg po qd): 125
Mean BW Nadir (MOLM-13 cells; 4 mg/kg po qd): −4.1%
Median TTE (MOLM-13 cells; 4 mg/kg po qd): 40.5
n Remaining Day 106 (MOLM-13 cells; 4 mg/kg po qd): 0
Statistical Significance (MOLM-13 cells; 4 mg/kg po qd): *** (*** = P ≤ 0.001)
Deaths TR (MOLM-13 cells; 10 mg/kg po qd): 0
ILS (MOLM-13 cells; 10 mg/kg po qd): 183
Mean BW Nadir (MOLM-13 cells; 10 mg/kg po qd): −3.5%
Median TTE (MOLM-13 cells; 10 mg/kg po qd): 51.0
n Remaining Day 106 (MOLM-13 cells; 10 mg/kg po qd): 0
Statistical Significance (MOLM-13 cells; 10 mg/kg po qd): *** (*** = P ≤ 0.001)
Median survival Ratio (MOLM-13 cells; 4 mg/kg po qd): 0.4444
Median survival Ratio (MOLM-13 cells; 10 mg/kg po qd): 0.3529
Median survival (MOLM-13 cells; 4 mg/kg po qd): 40.5
Median survival (MOLM-13 cells; 10 mg/kg po qd): 51
Hazard Ratio (Logrank) Ratio (MOLM-13 cells; 4 mg/kg po qd): 4.553
Hazard Ratio (Mantel-Haenszel) Ratio (MOLM-13 cells; 4 mg/kg po qd): 25.21
Hazard Ratio (Logrank) Ratio (MOLM-13 cells; 10 mg/kg po qd): 4.553
Hazard Ratio (Mantel-Haenszel) Ratio (MOLM-13 cells; 10 mg/kg po qd): 25.21
ILS (Increased Life Span) (MOLM-13 tumor cells; Cpd4 4.12 mg/kg po qd to end): 174.1
Median TTE (Median Time to Endpoint) (MOLM-13 tumor cells; Cpd4 4.12 mg/kg po qd to end): 37 days
NTR (No. of Non-treatment-related Deaths, due to Accident/Unknown Etiology) (MOLM-13 tumor cells; Cpd4 4.12 mg/kg po qd to end): 0
NTRm (No. of Non-treatment-related Deaths, due to Metastasis) (MOLM-13 tumor cells; Cpd4 4.12 mg/kg po qd to end): 0
TR (No. of Treatment-related Deaths) (MOLM-13 tumor cells; Cpd4 4.12 mg/kg po qd to end): 0
s (Number of Remaining Animals) (MOLM-13 tumor cells; Cpd4 4.12 mg/kg po qd to end): 0
BW Nadir (Lowest Mean Body Weight for Group) (MOLM-13 tumor cells; Cpd4 4.12 mg/kg po qd to end): −9.0% (35)
ILS (Increased Life Span) (MOLM-13 tumor cells; Cpd4 10.31 mg/kg po qd to end): 225.9
Median TTE (Median Time to Endpoint) (MOLM-13 tumor cells; Cpd4 10.31 mg/kg po qd to end): 44 days
NTR (No. of Non-treatment-related Deaths, due to Accident/Unknown Etiology) (MOLM-13 tumor cells; Cpd4 10.31 mg/kg po qd to end): 0
NTRm (No. of Non-treatment-related Deaths, due to Metastasis) (MOLM-13 tumor cells; Cpd4 10.31 mg/kg po qd to end): 0
TR (No. of Treatment-related Deaths) (MOLM-13 tumor cells; Cpd4 10.31 mg/kg po qd to end): 0
s (Number of Remaining Animals) (MOLM-13 tumor cells; Cpd4 10.31 mg/kg po qd to end): 5
BW Nadir (Lowest Mean Body Weight for Group) (MOLM-13 tumor cells; Cpd4 10.31 mg/kg po qd to end): −5.2% (42)
overall cell viability (U266B1; 48 h, 96 h, 144 h): dose-dependent correlation in Cpd4 concentration and overall cell viability
surface expression of CD47 (median fluorescence intensity, antibody binding capacity) (U266B1; 96 h and 144 h): increased in a dose-dependent manner
CD47 surface expression (H929): increase in CD47 surface expression in these cell lines apparent starting at 48 h
CD47 surface expression (MM1.S): increase in CD47 surface expression in these cell lines apparent starting at 48 h
IC50 [3]: 11 nM

Cc1c(-c2ccc(-c3ccccc3F)cc2)nc2ccc(F)cc2c1C(=O)O [BRQ, 6-fluoro-2-(2′-fluoro-1,1-biphenyl-4-yl)-3-methyl-4-quinolinecarboxylic acid, reference compound]
CALR surface expression (MFI) (MV4-11 cells): upregulated
CD47 surface expression (MFI) (MV4-11 cells): upregulated
CD47 surface expression [2]: upregulate surface CD47 expression regardless of the P53 mutation status
SIRPα surface expression [2]: upregulate surface SIRPα expression regardless of the P53 mutation status
